Assay [1] addresses Fibroblast growth factor receptor 4 (Homo sapiens) (UniProt P22455). The experiment in a line: Inhibition of FGFR4 (unknown origin) at 1 uM by Ambit Kinomescan binding assay relative to control; values are per cent of control.
For assay [2], the target named is Cyclin-dependent kinase 3 (Homo sapiens) (UniProt Q00526). The experiment in a line: Inhibition of CDK3 (unknown origin) at 1 uM by Ambit Kinomescan binding assay relative to control; values are per cent of control.
The target of assay [3] is Tyrosine-protein kinase Tec (Homo sapiens) (UniProt P42680). The experiment in a line: Inhibition of TEC (unknown origin) at 1 uM by Ambit Kinomescan binding assay relative to control.
Assay [4] relates to Tyrosine-protein kinase ABL1 (Homo sapiens), P00519 [F317I]. The experiment in a line: Inhibition of phosphorylated ABL1 F317I mutant (unknown origin) at 1 uM by Ambit Kinomescan binding assay relative to control; values are per cent of control.
The target in assay [5] is Receptor tyrosine-protein kinase erbB-3 (Homo sapiens) (UniProt P21860). The experiment in a line: Inhibition of HER3/ErbB3 Lys1 labeling site in human A-375 cells at 0.05 uM by KiNativ Profiling analysis relative to control. Format: cell-based.
Assay [6] has as its target Serine/threonine-protein kinase 38 (Homo sapiens) (UniProt Q15208). The experiment in a line: Inhibition of NDR1 Lys1 labeling site in human A-375 cells at 0.5 uM by KiNativ Profiling analysis relative to control. Format: cell-based.
The target of assay [7] is T1, Serine/threonine-protein kinase Chk1 (Homo sapiens) (UniProt O14757).
T1 sequence (whole entry): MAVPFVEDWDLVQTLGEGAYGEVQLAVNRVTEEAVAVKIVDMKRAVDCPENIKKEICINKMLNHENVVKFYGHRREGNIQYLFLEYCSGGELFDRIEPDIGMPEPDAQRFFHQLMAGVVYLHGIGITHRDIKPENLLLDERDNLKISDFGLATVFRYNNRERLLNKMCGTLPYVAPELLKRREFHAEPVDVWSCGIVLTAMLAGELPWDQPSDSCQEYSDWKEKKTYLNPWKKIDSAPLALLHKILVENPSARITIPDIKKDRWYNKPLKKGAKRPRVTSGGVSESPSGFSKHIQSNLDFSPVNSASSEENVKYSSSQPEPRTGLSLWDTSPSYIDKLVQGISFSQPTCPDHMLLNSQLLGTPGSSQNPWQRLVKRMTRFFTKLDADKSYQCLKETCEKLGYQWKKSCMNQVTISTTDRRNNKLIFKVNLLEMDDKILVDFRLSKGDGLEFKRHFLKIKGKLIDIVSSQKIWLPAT
The experiment in a line: Inhibition of CHK1 K2 labeling site in human Huh-7 cells at 10 uM by KiNativ Profiling analysis relative to control. Format: cell-based.

In assay [8] the target is T2, PAN2-PAN3 deadenylation complex subunit PAN3 (Homo sapiens) (UniProt Q58A45).
T2 sequence (whole entry): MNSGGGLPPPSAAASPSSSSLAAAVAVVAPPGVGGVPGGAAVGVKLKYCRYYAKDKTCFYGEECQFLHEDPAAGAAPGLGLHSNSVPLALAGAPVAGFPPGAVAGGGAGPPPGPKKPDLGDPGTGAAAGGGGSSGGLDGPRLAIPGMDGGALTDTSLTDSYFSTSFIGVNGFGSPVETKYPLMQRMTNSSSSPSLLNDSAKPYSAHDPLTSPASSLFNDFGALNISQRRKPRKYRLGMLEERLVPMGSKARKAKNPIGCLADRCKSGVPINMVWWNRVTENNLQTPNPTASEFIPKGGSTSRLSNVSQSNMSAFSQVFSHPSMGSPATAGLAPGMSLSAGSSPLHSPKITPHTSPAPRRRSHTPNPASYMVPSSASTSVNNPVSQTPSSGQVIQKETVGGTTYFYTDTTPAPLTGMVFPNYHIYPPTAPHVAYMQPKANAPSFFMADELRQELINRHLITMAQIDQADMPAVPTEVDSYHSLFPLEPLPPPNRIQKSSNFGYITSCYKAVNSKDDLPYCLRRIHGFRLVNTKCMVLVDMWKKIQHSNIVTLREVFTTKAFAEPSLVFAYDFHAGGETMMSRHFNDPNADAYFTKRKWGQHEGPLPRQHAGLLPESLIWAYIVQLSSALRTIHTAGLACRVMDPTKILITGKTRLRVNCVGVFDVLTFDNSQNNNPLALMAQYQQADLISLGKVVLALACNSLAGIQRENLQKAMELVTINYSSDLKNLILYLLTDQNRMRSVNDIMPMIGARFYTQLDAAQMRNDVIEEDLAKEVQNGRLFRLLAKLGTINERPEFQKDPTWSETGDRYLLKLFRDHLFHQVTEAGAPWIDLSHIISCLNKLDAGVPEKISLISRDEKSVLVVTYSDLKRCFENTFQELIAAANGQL
The experiment in a line: Inhibition of PAN3 KD labeling site in human Huh-7 cells at 10 uM by KiNativ Profiling analysis relative to control. Format: cell-based.

The target of assay [9] is 5'-AMP-activated protein kinase catalytic subunit alpha-1 (Homo sapiens) (UniProt Q13131). The experiment in a line: Inhibition of AMPK-alpha1 (unknown origin) at 10 uM by Ambit Kinomescan binding assay relative to control.
Assay [10] deals with Peripheral plasma membrane protein CASK (Homo sapiens) (UniProt O14936). The experiment in a line: Inhibition of CASK Lys1 labeling site in human A-375 cells at 0.05 uM by KiNativ Profiling analysis relative to control.
Assay [11] concerns the target Epidermal growth factor receptor (Homo sapiens) (UniProt P00533). The experiment in a line: Inhibition of EGFR Lys1 labeling site in human A-375 cells at 0.05 uM by KiNativ Profiling analysis relative to control. Format: cell-based.
Assay [12] addresses Mitogen-activated protein kinase 3 (Homo sapiens) (UniProt P27361). The experiment in a line: Inhibition of Erk1 Lys2 labeling site harbouring YIHSANVLHRDLKPSNLLINTTCDLK in human Huh-7 cell lysate at 1 uM by KiNativ Profiling analysis relative to control. Format: subcellular.
In assay [13] the target is Serine/threonine-protein kinase MARK2 (Homo sapiens) (UniProt Q7KZI7). The experiment in a line: Inhibition of MARK2 Lys1 labeling site harbouring HILTGKEVAVKIIDKTQLNSSSLQK in human Huh-7 cells at 1 uM by KiNativ Profiling analysis relative to control. Format: cell-based.

The values that follow come from ChEMBL document CHEMBL5696442, “Discovery of type II inhibitors of TGFβ-activated kinase 1 (TAK1) and mitogen-activated protein kinase kinase kinase kinase 2 (MAP4K2)” (J Med Chem, 2015).

In general, residual activity refers to the activity still measured, relative to the control. Lower therefore signals a large loss of activity. The term inhibition denotes the change of the read-out against control, counted positive when it falls.

Mitogen-activated protein kinase 3 (Homo sapiens), sequence (P27361 whole entry): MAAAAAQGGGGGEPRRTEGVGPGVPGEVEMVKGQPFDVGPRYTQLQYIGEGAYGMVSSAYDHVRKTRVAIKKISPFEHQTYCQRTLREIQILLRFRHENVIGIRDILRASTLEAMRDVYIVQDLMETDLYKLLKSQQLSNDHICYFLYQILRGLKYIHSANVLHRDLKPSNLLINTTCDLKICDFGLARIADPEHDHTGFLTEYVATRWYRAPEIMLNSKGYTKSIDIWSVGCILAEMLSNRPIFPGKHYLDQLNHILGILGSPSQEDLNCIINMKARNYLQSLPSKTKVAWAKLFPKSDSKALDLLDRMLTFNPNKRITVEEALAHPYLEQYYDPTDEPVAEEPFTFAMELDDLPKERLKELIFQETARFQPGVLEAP
Serine/threonine-protein kinase 38 (Homo sapiens), sequence (Q15208 2-465 limits assumed): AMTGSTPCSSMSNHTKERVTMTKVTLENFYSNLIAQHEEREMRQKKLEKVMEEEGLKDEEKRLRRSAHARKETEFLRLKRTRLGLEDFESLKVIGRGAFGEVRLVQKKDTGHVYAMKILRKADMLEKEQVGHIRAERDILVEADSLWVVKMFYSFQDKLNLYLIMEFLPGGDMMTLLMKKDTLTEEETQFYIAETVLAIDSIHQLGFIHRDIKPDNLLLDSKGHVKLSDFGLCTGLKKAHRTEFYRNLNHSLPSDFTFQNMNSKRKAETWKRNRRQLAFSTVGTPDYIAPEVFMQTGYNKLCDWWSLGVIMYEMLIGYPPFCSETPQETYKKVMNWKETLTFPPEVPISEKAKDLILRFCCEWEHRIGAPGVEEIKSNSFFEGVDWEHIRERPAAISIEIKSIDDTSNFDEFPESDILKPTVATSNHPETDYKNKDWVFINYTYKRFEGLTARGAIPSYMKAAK
Tyrosine-protein kinase ABL1 (Homo sapiens), P00519 [F317I], sequence (P00519 whole entry F317I): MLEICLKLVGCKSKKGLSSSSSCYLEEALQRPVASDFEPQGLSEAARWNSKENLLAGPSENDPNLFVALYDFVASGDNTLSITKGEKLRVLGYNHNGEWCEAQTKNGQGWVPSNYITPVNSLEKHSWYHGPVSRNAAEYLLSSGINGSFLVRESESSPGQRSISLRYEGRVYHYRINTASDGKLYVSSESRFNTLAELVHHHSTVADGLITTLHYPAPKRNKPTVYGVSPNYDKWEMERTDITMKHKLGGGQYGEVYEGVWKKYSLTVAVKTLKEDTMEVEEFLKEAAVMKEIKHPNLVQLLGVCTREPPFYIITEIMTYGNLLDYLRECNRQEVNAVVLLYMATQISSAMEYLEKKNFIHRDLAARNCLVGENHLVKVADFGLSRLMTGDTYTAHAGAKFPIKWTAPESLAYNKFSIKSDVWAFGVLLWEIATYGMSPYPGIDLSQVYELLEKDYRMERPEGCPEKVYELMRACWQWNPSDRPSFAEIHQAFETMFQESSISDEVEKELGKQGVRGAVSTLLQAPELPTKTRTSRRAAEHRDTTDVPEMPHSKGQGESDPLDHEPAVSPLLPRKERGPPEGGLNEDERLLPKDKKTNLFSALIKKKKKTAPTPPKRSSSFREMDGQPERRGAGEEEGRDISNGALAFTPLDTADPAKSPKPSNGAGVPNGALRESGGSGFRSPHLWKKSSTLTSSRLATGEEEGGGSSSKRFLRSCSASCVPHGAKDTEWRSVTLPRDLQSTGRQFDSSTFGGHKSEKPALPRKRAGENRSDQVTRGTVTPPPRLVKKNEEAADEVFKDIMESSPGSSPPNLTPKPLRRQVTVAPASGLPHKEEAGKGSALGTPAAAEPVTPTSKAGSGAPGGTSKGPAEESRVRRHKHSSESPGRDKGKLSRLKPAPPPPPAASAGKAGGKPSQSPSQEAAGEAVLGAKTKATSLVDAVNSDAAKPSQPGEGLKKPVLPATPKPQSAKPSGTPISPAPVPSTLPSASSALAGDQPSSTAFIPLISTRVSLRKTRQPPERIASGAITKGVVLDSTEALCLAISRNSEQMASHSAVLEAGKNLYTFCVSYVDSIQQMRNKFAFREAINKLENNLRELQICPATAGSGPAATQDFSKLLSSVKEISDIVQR
Serine/threonine-protein kinase MARK2 (Homo sapiens), sequence (Q7KZI7 whole entry): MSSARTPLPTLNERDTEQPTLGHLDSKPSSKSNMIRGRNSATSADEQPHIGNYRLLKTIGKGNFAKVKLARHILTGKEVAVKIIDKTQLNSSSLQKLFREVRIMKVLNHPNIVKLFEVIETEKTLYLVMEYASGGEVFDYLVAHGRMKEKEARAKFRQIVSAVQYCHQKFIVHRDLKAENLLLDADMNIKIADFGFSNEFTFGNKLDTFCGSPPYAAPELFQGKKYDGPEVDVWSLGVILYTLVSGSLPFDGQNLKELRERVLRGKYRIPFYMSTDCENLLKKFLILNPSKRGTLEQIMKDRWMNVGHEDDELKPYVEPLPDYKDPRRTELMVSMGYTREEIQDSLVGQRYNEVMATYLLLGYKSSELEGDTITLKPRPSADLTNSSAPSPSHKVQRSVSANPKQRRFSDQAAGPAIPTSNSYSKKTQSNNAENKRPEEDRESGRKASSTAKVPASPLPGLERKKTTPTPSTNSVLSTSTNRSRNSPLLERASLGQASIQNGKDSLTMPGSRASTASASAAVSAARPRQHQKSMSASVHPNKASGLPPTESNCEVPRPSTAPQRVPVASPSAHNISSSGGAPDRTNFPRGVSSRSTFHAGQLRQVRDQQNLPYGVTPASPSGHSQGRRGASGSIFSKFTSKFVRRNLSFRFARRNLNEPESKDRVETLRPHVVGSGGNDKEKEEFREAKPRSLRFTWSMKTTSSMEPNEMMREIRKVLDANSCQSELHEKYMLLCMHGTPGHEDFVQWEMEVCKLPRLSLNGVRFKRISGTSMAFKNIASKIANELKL
Peripheral plasma membrane protein CASK (Homo sapiens), sequence (O14936 whole entry, looked up): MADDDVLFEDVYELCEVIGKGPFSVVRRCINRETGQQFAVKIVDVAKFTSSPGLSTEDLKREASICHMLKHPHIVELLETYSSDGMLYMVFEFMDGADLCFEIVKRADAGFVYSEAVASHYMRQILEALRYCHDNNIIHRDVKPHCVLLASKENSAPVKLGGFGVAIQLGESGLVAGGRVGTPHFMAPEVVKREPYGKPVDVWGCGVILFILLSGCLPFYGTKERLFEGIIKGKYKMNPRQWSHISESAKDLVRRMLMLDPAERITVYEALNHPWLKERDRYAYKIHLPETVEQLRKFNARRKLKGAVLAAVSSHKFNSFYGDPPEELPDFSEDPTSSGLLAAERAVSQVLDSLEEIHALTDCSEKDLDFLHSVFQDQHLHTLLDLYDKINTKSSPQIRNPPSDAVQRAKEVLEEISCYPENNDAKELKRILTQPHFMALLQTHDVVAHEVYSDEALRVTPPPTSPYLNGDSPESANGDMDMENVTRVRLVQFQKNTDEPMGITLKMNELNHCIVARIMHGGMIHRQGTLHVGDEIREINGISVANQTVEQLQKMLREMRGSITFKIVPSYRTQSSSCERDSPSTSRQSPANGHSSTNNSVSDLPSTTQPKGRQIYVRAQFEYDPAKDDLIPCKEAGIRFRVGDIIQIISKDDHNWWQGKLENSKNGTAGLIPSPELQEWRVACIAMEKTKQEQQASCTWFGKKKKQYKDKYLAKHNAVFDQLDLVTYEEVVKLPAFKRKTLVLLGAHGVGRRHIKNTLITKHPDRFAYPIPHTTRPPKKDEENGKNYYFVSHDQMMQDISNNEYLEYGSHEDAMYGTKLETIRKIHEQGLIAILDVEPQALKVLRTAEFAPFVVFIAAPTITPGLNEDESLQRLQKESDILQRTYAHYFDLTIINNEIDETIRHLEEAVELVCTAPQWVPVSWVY
5'-AMP-activated protein kinase catalytic subunit alpha-1 (Homo sapiens), sequence (Q13131 whole entry, looked up): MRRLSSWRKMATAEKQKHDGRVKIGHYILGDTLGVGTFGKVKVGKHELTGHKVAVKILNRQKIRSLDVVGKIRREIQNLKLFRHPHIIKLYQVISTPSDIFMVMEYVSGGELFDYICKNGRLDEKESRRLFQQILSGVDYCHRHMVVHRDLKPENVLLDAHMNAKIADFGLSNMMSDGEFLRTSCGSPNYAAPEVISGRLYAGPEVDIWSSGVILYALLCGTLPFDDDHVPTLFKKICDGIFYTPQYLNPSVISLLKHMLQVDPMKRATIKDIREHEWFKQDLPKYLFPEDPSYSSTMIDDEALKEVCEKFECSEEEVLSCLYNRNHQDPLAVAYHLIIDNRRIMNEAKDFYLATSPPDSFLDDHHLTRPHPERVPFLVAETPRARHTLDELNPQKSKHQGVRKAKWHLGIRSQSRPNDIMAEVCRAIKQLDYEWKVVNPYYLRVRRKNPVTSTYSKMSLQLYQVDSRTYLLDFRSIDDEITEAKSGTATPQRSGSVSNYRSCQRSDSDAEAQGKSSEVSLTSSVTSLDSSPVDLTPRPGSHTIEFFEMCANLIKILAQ
Fibroblast growth factor receptor 4 (Homo sapiens), sequence (P22455 22-802 limits assumed): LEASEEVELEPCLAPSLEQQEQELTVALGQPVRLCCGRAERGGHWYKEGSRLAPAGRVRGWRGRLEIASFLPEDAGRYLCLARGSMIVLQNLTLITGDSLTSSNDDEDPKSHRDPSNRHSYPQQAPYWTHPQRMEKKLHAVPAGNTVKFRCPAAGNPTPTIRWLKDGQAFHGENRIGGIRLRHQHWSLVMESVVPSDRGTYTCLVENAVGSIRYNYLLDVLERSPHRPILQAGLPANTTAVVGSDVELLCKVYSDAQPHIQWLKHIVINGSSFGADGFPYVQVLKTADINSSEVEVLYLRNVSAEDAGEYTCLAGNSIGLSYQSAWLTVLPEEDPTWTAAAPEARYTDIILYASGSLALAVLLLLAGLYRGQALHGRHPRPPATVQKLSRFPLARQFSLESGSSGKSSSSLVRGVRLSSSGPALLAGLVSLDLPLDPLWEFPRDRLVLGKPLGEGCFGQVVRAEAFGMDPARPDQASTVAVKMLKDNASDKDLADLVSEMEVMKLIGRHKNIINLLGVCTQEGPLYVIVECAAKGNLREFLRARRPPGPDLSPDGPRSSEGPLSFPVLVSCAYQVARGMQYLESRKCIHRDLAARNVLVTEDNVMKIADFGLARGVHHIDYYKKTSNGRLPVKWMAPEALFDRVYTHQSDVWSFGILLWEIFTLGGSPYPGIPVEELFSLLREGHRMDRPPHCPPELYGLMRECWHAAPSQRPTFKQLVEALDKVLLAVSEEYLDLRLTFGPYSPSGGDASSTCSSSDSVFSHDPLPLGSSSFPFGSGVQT

The compound `CCN1CCN(Cc2ccc(NC(=O)c3ccc(C)c(/C=C/c4cnc5[nH]ccc5c4OC)c3)cc2C(F)(F)F)CC1` returned a residual activity in assay [1] of 8.1%. Further, the % of control in assay [2] stood at 100%. In addition, the inhibition in [3] is 16%; in [5], 21.3%; in assay [6], -0.8%. For the same compound, the percent of control in assay [4] is 22%.
In the case of `CCN1CCN(Cc2ccc(NC(=O)c3ccc(C)c(Oc4ccnc5[nH]ccc45)c3)cc2C(F)(F)F)CC1`, the inhibition in assay [7] came to 3.5%; in assay [8], 4.5%; in [9], 33%; in [10], 10.9%; in [11], 11.7%.
Turning to `CNc1cc(Oc2cc(C(=O)Nc3cc(N4CCN(C)CC4)cc(C(F)(F)F)c3)ccc2C)ncn1`, the inhibition in assay [12] was 20.7%; in [13] it was -0.2%.
